Laboratory results taken from paper PMC10322960 (European Journal of Drug Metabolism and Pharmacokinetics, 2023).

Assay: Phase 1 clinical drug–drug interaction study, safety assessment
Type: in vivo, human
Conditions: Cohort 1, 12 subjects; mild in severity

## CCC(C)n1ncn(-c2ccc(N3CCN(c4ccc(OCC5COC(Cn6cncn6)(c6ccc(Cl)cc6Cl)O5)cc4)CC3)cc2)c1=O (centres unmarked) [itraconazole, reference compound]
  number of treatment-emergent AEs considered related to the drug: 5
  subjects with treatment-emergent AEs considered related to the drug: 16.7%
